Test results reported in patent publication US20260216238A1, “TETRATHIOMOLYBDIC ACID FOR USE IN TREATING COPPER METABOLISM-ASSOCIATED DISEASES OR DISORDERS (WILSON DISEASE)” (Alexion Pharmaceuticals, Inc., priority 2023, published 2026).
Read-outs that look alike come from different tables or passages of the source.

Tests used:
[1] = system: patients with Wilson disease (WD); conditions: in vivo
[2] = system: patients with Wilson disease (WD); conditions: in vivo; remark: listed apart in the source
[3] = system: patients with Wilson disease (WD); conditions: FIG. 23; TTM versus SoC chelator therapy
From the text: Urine samples were collected for analysis of urine copper and molybdenum.

## bis-choline tetrathiomolybdate [TTM]
[1]
  ALT increased AE, % participants: 14.6%
  ALT increased AE, E events: 25
  ALT increased AE, N participants: 20
  ALT increased adverse event: 14.6%
  AST increased AE, % participants: 2.9%
  AST increased AE, E events: 4
  AST increased AE, N participants: 4
  GGT increased AE, % participants: 2.2%
  GGT increased AE, E events: 3
  GGT increased AE, N participants: 3
  Hepatic enzyme increased AE, N participants: 3
  Hepatic function abnormal AE, % participants: 2.2%
  Hepatic function abnormal AE, E events: 3
  Hepatic function abnormal AE, N participants: 3
  Hyperbilirubinemia AE, % participants: 0.7%
  Hyperbilirubinemia AE, E events: 1
  Hyperbilirubinemia AE, N participants: 1
  Hypertransaminasemia AE, % participants: 1.5%
  Hypertransaminasemia AE, E events: 4
  Hypertransaminasemia AE, N participants: 2
  Jaundice AE, % participants: 0.7%
  Jaundice AE, E events: 1
  Jaundice AE, N participants: 1
  LFT abnormal AE, % participants: 1.5%
  LFT abnormal AE, E events: 2
  LFT abnormal AE, N participants: 2
  LFT increased AE, % participants: 2.9%
  LFT increased AE, E events: 4
  LFT increased AE, N participants: 4
  Liver disorder AE, % participants: 0.7%
  Liver disorder AE, E events: 1
  Liver disorder AE, N participants: 1
  participants with ALT>3×ULN but≤5×ULN: 10.2%
  participants with ALT>5×ULN but≤10×ULN: 7.3%
  participants with ALT>10×ULN but≤20×ULN: 0.7%
  participants with ALT>20×ULN: 2.9%
  participants with post-baseline elevation of ALT ≥3× ULN: 29 participants
[2]
  AEs in SOC Investigations: 29.5%
  AEs in SOC Metabolism and nutrition disorders: 11.5%
  AEs in SOC Skin and subcutaneous tissue disorders: 13.1%
  Affective disorder, E (events): 0
  Affective disorder, participants with AE: 0 N (%)
  Alanine aminotransferase increased AE, % participants: 19.7%
  Alanine aminotransferase increased AE, E events: 14
  Alanine aminotransferase increased AE, N participants: 12
  Anxiety, E (events): 1
  Anxiety, participants with AE: 1 (1.6) N (%)
  Aspartate aminotransferase increased AE, % participants: 6.6%
  Aspartate aminotransferase increased AE, E events: 4
  Aspartate aminotransferase increased AE, N participants: 4
  Attention deficit hyperactivity disorder, E (events): 0
  Attention deficit hyperactivity disorder, participants with AE: 0 N (%)
  Blood and lymphatic system disorders, E (events): 18
  Blood and lymphatic system disorders, participants with AE: 7 (11.5) N (%)
  Cardiac disorders, E (events): 5
  Cardiac disorders, participants with AE: 3 (4.9) N (%)
  Congenital, familial, and genetic disorders, E (events): 0
  Congenital, familial, and genetic disorders, participants with AE: 0 N (%)
  Dyslipidemia AE, % participants: 1.6%
  Dyslipidemia AE, E events: 1
  Dyslipidemia AE, N participants: 1
  Ear and labyrinth disorders, E (events): 1
  Ear and labyrinth disorders, participants with AE: 1 (1.6) N (%)
  Eczema AE, % participants: 1.6%
  Eczema AE, E events: 1
  Eczema AE, N participants: 1
  Eye disorders, E (events): 0
  Eye disorders, participants with AE: 0 N (%)
  Fatigue AE, % participants: 8.2%
  Fatigue AE, E events: 5
  Fatigue AE, N participants: 5
  Gamma-glutamyltransferase increased AE, % participants: 4.9%
  Gamma-glutamyltransferase increased AE, E events: 3
  Gamma-glutamyltransferase increased AE, N participants: 3
  Gastrointestinal disorders, E (events): 30
  Gastrointestinal disorders, participants with AE: 18 (29.5) N (%)
  Hand dermatitis AE, % participants: 1.6%
  Hand dermatitis AE, E events: 1
  Hand dermatitis AE, N participants: 1
  Hepatic enzyme increased AE, N participants: 3
  Hepatobiliary disorders, E (events): 3
  Hepatobiliary disorders, participants with AE: 2 (3.3) N (%)
  Hyperlipidaemia AE, % participants: 1.6%
  Hyperlipidaemia AE, E events: 1
  Hyperlipidaemia AE, N participants: 1
  Hypertriglyceridaemia AE, % participants: 1.6%
  Hypertriglyceridaemia AE, E events: 3
  Hypertriglyceridaemia AE, N participants: 1
  Infections and infestations, E (events): 23
  Infections and infestations, participants with AE: 17 (27.9) N (%)
  Injury, poisoning and procedural complications, E (events): 13
  Injury, poisoning and procedural complications, participants with AE: 7 (11.5) N (%)
  Investigations (SOC) AE, % participants: 29.5%
  Investigations (SOC) AE, E events: 29
  Investigations (SOC) AE, N participants: 18
  Metabolism and nutrition disorders (SOC) AE, % participants: 11.5%
  Metabolism and nutrition disorders (SOC) AE, E events: 10
  Metabolism and nutrition disorders (SOC) AE, N participants: 7
  Neoplasms benign, malignant, and unspecified (incl cysts and polyps), E (events): 1
  Neoplasms benign, malignant, and unspecified (incl cysts and polyps), participants with AE: 1 (1.6) N (%)
  Nervous system disorders, E (events): 12
  Nervous system disorders, participants with AE: 11 (18.0) N (%)
  Neutrophil count decreased AE, % participants: 1.6%
  Neutrophil count decreased AE, E events: 1
  Neutrophil count decreased AE, N participants: 1
  Post-traumatic stress disorder, E (events): 1
  Post-traumatic stress disorder, participants with AE: 1 (1.6) N (%)
  Product issues, E (events): 0
  Product issues, participants with AE: 0 N (%)
  Pruritus AE, % participants: 3.3%
  Pruritus AE, E events: 2
  Pruritus AE, N participants: 2
  Psychiatric disorders, E (events): 3
  Psychiatric disorders, participants with AE: 3 (4.9) N (%)
  Pyrexia AE, % participants: 1.6%
  Pyrexia AE, E events: 1
  Pyrexia AE, N participants: 1
  Rash AE, % participants: 1.6%
  Rash AE, E events: 5
  Rash AE, N participants: 1
  Rash pruritic AE, % participants: 1.6%
  Rash pruritic AE, E events: 1
  Rash pruritic AE, N participants: 1
  Renal and urinary disorders, E (events): 2
  Renal and urinary disorders, participants with AE: 1 (1.6) N (%)
  Reproductive system and breast disorders, E (events): 0
  Reproductive system and breast disorders, participants with AE: 0 N (%)
  Respiratory, thoracic, and mediastinal disorders, E (events): 4
  Respiratory, thoracic, and mediastinal disorders, participants with AE: 3 (4.9) N (%)
  Restlessness, E (events): 0
  Restlessness, participants with AE: 0 N (%)
  Skin and subcutaneous tissue disorders (SOC) AE, % participants: 13.1%
  Skin and subcutaneous tissue disorders (SOC) AE, E events: 15
  Skin and subcutaneous tissue disorders (SOC) AE, N participants: 8
  Sleep disorder, E (events): 1
  Sleep disorder, participants with AE: 1 (1.6) N (%)
  Vascular disorders, E (events): 5
  Vascular disorders, participants with AE: 3 (4.9) N (%)
[3]
  24-hour urinary copper: lower with TTM than SoC chelator therapy
